Positions of bridges follow the written chain, without caps; N, C: chain ends. Non-standard residues stand in square brackets, D forms with d. Residues, ends and D or L forms follow the SMILES beside them. No end group written: not given here. R8 = C=CCCCCCC[C@@](C)(N)C(=O)O; S5 = C=CCCC[C@](C)(N)C(=O)O
Tests used:
[1] = test system: Vero cells; test: Cytotoxicity observed in the plaque reduction assays; type: cell-based, African green monkey
Description: (§1) Cells with ~90% confluence in 48-well plates were infected by absorbing virus (~100 PFU/well) for 1 h in 100 µL growth medium followed by adding 200 µL culture medium containing DMSO vehicle or serially diluted peptides or Acyclovir (Tocris Bioscience-Fisher Scientific) to each well of the plate. DMSO was maintained at 1% throughout the treatment. Cells were subsequently fixed and stained with 300 µL PBS containing 4% formaldehyde and 0.2% crystal violet overnight at room temperature. HSV-1 plaques were quantified at ~55 h post-infection of Vero cells. VV (WR strain) infection of BSC-1 cells was analyzed for plaque formation after 24 h. The plaque reduction assays were performed in duplicate and independently repeated twice. Cells were stained, and plaques counted under a dissecting microscope. Data were plotted on the GraphPad Prism.
Cellular cytotoxicity of the N-terminal substituted stapled peptides was also assessed. S-pep7A caused observable cell death at 50 µM in the plaque assays.

[2] = test system: HSV-1; test: microbe, parasite or virus in culture; type: cell-based; settings: 1 h
Description: as §1
Standard viral plaque reduction assays were conducted in Vero cells to determine if any of the five stapled peptides (S-pep1/3/4/7/8) that were able to block processive DNA synthesis, could also block HSV-1 infection. To minimize possible interference of HSV-1 cell attachment and entry by the peptides, cells were first infected by absorbing the virus for 1 h, followed by treatment with peptides at serial dilutions. […] The EC50 values of both S-pep3 and S-pep8 were approximately 100 µM (FIG. 15C and FIG. 15F). Additionally, S-pep4 was toxic at 12.5 µM, which precluded further optimization.

[3] = test system: HSV-1; test: HSV-1 infection of human 3D organotypic corneal culture; type: cell-based; settings: 25 µM, 5 days treatment, 3D organotypic corneal tissue
From the text: Cultures were assembled with human dermal fibroblasts isolated from newborn foreskins and primary human corneal epithelial cells isolated from unused sclerolimbal rings from corneal transplants. After three weeks, organotypic cultures with differentiated corneal epithelial cells overlaying a layer of fibroblasts are established, reproducing the organization of the anterior corneal surface (FIG. 23A).
The assembled 3D organotypic corneal culture was infected with HSV-1 by gently abrading the surface and topically applying 10^6 PFU/mL of HSV-1. After 1 h, unabsorbed virus was removed, and the culture was incubated in medium containing 25 µM S-pep7B in 0.5% DMSO. Treatment occurred over a period of 5 days, in which the medium containing S-pep7B was refreshed every other day. The corneal tissues were examined microscopically each day. At the end of the treatment period, the 3D tissue was cut in half, using the first half to measure the virus titer by plaque assay and the other half for histological examination.

[4] = test system: HSV-1 viral DNA (UL42 gene); test: HSV-1 DNA replication in infected Vero cells (UL42 gene PCR); type: cell-based
Description: Confluent Vero cells in 48-well plates were infected by absorbing 10^5 PFU of HSV-1 (MOI ~1) for 1 h in 100 µL of DMEM medium containing 5% FBS. Unabsorbed virus was removed by washing the wells 4 times with PBS. Cells were then treated with S-pep7B (SEQ ID NO:32) peptide in triplicate at different dilutions in 300 µL growth medium containing 1% DMSO. At 4 h post-treatment, cells of each triplicate treatment were combined and lysed with 20 mM Tris buffer (pH 7.5) containing 20 mM EDTA, 0.5% SDS, and 0.5 mg/mL proteinase K. Total DNA was then prepared from the lysed cells with phenol/chloroform extraction and ethanol precipitation, and used for UL42 gene amplification by PCR using the primers described above for plasmid construction. After agarose gel electrophoresis, UL42 DNA levels were quantitated using an image capture and analysis system (G:Box Chemi HR, Syngene) and normalized to that of the cellular house-keeping gene GAPDH (glyceraldehyde-3-phosphate dehydrogenase), which was amplified using primers (forward: 5′-[…]-3′ (SEQ ID NO:55), and reverse: 5′-[…]-3′) (SEQ ID NO:56). The assays were independently repeated twice.
Experiments were subsequently performed to determine if the HSV-1 antiviral activity of S-pep7B was specifically due to the inhibition of viral DNA replication. […]

[5] = test system: vaccinia virus (VV, WR strain); type: cell-based; settings: BSC-1 cells, plaques after 24 h
[6] = ATP-based cytotoxicity in human primary corneal epithelial cells; type: cell-based; settings: read-out: CC50 by ATP measurement
Description: (§2) Cells were grown in 96-well plates to ~80% confluence and treated with peptides at different concentrations in 150 µL growth medium containing 1% DMSO. At 24 h post-treatment, 100 µL of the culture medium was used for the lactate dehydrogenase (LDH) cytotoxicity assay. In addition, the cells from the same treatment were assessed with an ATP-based cell viability assay. Briefly, after the growth medium was completely removed, the cells were lysed in 100 µL of 1% Triton X-100 in PBS per well at room temperature. After 10 min, 5 µL of lysate was used for ATP-based luciferase/luminescence assay according to the manufacturer’s protocol (Invitrogen, USA). The assays were performed in triplicate and independently repeated twice.

[7] = Cytotoxicity and cell viability assays (ATP content, LDH leakage) in Vero cells; type: cell-based; settings: African green monkey, 24 h treatment
Description: as §2

[8] = biological target: T1, HSV-1 Processivity Factor (UL42) (HSV-1 (strain KOS), UniProt P10226 1-488); test: cell-based or functional assay
T1 sequence: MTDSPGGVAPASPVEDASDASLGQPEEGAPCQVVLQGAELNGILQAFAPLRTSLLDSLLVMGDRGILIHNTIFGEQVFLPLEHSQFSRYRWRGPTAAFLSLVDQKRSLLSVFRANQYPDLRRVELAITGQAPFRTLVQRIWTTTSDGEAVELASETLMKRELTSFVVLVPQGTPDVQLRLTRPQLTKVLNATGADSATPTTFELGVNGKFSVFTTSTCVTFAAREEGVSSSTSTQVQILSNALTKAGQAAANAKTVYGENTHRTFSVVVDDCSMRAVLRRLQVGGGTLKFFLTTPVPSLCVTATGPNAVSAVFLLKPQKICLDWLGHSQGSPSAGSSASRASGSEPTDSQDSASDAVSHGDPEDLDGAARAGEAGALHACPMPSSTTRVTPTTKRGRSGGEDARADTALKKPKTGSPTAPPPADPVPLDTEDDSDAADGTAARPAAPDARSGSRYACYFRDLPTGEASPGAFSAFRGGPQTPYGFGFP

Molecule: CC(=O)N[C@@H](CCCNC(=N)N)C(=O)N[C@@H](CCCNC(=N)N)C(=O)N[C@@]1(C)CCCC=CCCCCCC[C@](C)(C(=O)N[C@@H](CC(C)C)C(=O)N[C@@H](C)C(=O)O)NC(=O)[C@H](CC(=O)O)NC(=O)[C@H](Cc2ccccc2)NC(=O)[C@H](C)NC(=O)[C@H](CCCNC(=N)N)NC(=O)[C@H](Cc2c[nH]cn2)NC(=O)[C@H](CC(C)C)NC1=O [S-pep4, Ac-RRXLHRAFDZLA] (Ac-RR[S5]LHRAFD[R8]LA-OH; staple 3-10; C-terminus assumed)
- concentration at which toxicity / cell death was observed in the plaque assays [1]: 12.5 µM

Molecule: CC(=O)N[C@H](C(=O)N[C@H](C(=O)N[C@@H](CCCNC(=N)N)C(=O)N[C@@H](CCCNC(=N)N)C(=O)N[C@@]1(C)CCCC=CCCC[C@@](C)(C(=O)N[C@@H](Cc2ccccc2)C(=O)N[C@@H](CC(=O)O)C(=O)N[C@H](C(=O)N[C@@H](CC(C)C)C(=O)N[C@@H](C)C(=O)O)[C@@H](C)O)NC(=O)[C@H](CCCNC(=N)N)NC(=O)[C@H](Cc2c[nH]cn2)NC(=O)[C@H](CC(C)C)NC1=O)[C@@H](C)O)C(C)C [S-pep7A, Ac-VTRRXLHRXFDTLA] (Ac-VTRR[S5]LHR[S5]FDTLA-OH; staple 5-9; C-terminus assumed)
- concentration at which toxicity / cell death was observed in the plaque assays [1]: 50 µM
- EC50 [2]: 9.6 µM

Molecule: CC(=O)N[C@H](C(=O)N[C@H](C(=O)N[C@H](C(=O)N[C@@H](CCCNC(=N)N)C(=O)N[C@@H](CCCNC(=N)N)C(=O)N[C@@]1(C)CCCC=CCCC[C@@](C)(C(=O)N[C@@H](Cc2ccccc2)C(=O)N[C@@H](CC(=O)O)C(=O)N[C@H](C(=O)N[C@@H](CC(C)C)C(=O)N[C@@H](C)C(=O)O)[C@@H](C)O)NC(=O)[C@H](CCCNC(=N)N)NC(=O)[C@H](Cc2c[nH]cn2)NC(=O)[C@H](CC(C)C)NC1=O)[C@@H](C)O)C(C)C)C(C)C [S-pep7B, Ac-VVTRRXLHRXFDTLA] (Ac-VVTRR[S5]LHR[S5]FDTLA-OH; staple 6-10; C-terminus assumed)
- HSV-1 structural gB protein (immunostaining) [3]: complete absence
- nuclear morphology (DAPI staining) [3]: unremarkable nuclear morphology
- viral DNA level relative to time point 0 h ([4]; 50 µM, 4 h post-treatment): completely suppressed
- UL42 DNA levels in infected cells ([4]; MOI ~1, 4 h post-treatment, increasing concentrations, normalized to GAPDH): greatly reduced
- inhibition of VV infection of cells [5]: did not inhibit
- concentration at which toxicity / cell death was observed in the plaque assays [1]: no visible cytotoxicity
- CC50 at 24 h [6]: 31.2 µM
- EC50 [2]: 9.8 µM
- CC50 at 24 h ([7]; read-out: CC50, LDH leakage): 126 µM
- CC50 at 24 h ([7]; read-out: CC50, intracellular ATP content): 114 µM

Molecule: CC(=O)N[C@@H](CCCNC(=N)N)C(=O)N[C@H](C(=O)N[C@@H](CCCNC(=N)N)C(=O)N[C@@H](CCCNC(=N)N)C(=O)N[C@@]1(C)CCCC=CCCC[C@@](C)(C(=O)N[C@@H](Cc2ccccc2)C(=O)N[C@@H](CC(=O)O)C(=O)N[C@H](C(=O)N[C@@H](CC(C)C)C(=O)N[C@@H](C)C(=O)O)[C@@H](C)O)NC(=O)[C@H](CCCNC(=N)N)NC(=O)[C@H](Cc2c[nH]cn2)NC(=O)[C@H](CC(C)C)NC1=O)[C@@H](C)O [S-pep7C, Ac-RTRRXLHRXFDTLA] (Ac-RTRR[S5]LHR[S5]FDTLA-OH; staple 5-9; C-terminus assumed)
- concentration at which toxicity / cell death was observed in the plaque assays [1]: 5 µM

Molecule: CC(=O)N[C@@H](CCCNC(=N)N)C(=O)N[C@@H](CCCNC(=N)N)C(=O)N[C@H](C(=O)N[C@@H](CCCNC(=N)N)C(=O)N[C@@H](CCCNC(=N)N)C(=O)N[C@@]1(C)CCCC=CCCC[C@@](C)(C(=O)N[C@@H](Cc2ccccc2)C(=O)N[C@@H](CC(=O)O)C(=O)N[C@H](C(=O)N[C@@H](CC(C)C)C(=O)N[C@@H](C)C(=O)O)[C@@H](C)O)NC(=O)[C@H](CCCNC(=N)N)NC(=O)[C@H](Cc2c[nH]cn2)NC(=O)[C@H](CC(C)C)NC1=O)[C@@H](C)O [S-pep7D, Ac-RRTRRXLHRXFDTLA] (Ac-RRTRR[S5]LHR[S5]FDTLA-OH; staple 6-10; C-terminus assumed)
- concentration at which toxicity / cell death was observed in the plaque assays [1]: 5 µM

B1: Native peptide (N-pep) (peptide)
peptide: Ac-ETRRMLHRAFDTLA
- IC50 of in vitro processive DNA synthesis directed by recombinant UL30 and UL42 [8]: > 200 µM

From patent US20230235301A1, “Compounds and Methods for Treating, Ameliorating, or Preventing Herpes Ocular Keratitis” (THE TRUSTEES OF THE UNIVERSITY OF PENNSYLVANIA, priority 2020, published 2023)
